The source of these data is patent publication US20050175696A1, “Drug granule coatings that impart smear resistance during mechanical compression” (priority 2003, published 2005).

The nature of the data set: Equilibrium solubility of topiramate in de-ionized water and in aqueous surfactant solutions. The data set is classed as physicochemical. The procedure: The resulting solution saturated with the pharmaceutical agent is then filtered, typically under pressure through a 0.8-micron Millipore filter, and the concentration of the pharmaceutical agent in the solution is measured by any appropriate analytical method including gravimetric, ultraviolet spectrophometry, chromatography, and the like. The solubility of the pharmaceutical agent is measured at equilibrium.
A drug composition of the present invention was prepared as follows. Aqueous solutions of five surfactants were prepared. The selected surfactants were four grades of ethylene oxide/propylene oxide/ethylene oxide (LUTROL grades F127, F87, F 108, and F68) and PEG-40 stearate (MYRJ 52). Solutions were made at concentrations of 1, 5, and 15 weight percent. The aqueous surfactant blends solutions were chilled as necessary to promote complete dissolution of the surfactant prior to drug solubility studies.
The aqueous surfactant solutions were equilibrated to constant temperature in a 37° C. water bath. Then, neat topiramate drug was added slowly with stirring in about 10 mg increments to the surfactant solutions until no more drug dissolved. […] The resulting saturated solutions of drug were filtered through 0.8 micron filters and analyzed for drug concentration by refractive index chromatography. […]

The solubility is the dissolved amount per volume that the medium holds.

SMILES strings stand for the structures. In brackets after ≈: the same amount, converted by molar mass.

`CC1(C)O[C@@H]2[C@@H](CO[C@@]3(COS(N)(=O)=O)OC(C)(C)O[C@@H]23)O1` [topiramate]: where the note is “37 °C, thermodynamic from solid, de-ionized water, no temperature printed at the place, read-out: Solubility of neat topiramate in de-ionized water”, the solubility was roughly 12 mg/mL (≈ 35.4 mM). Also, the “Topiramate solubility in water in the presence of surfactant, compared to control without surfactant” value (LUTROL F127, F87, F108, F68 and MYRJ 52 solutions at 1, 5 and 15 weight percent, 37° C.) is listed as “increased by each surfactant”.
